Measurements published in the NIST ThermoML archive (doi:10.1016/j.jct.2016.10.047).

Experiment: refractive index (other wavelength) (dimensionless); xn = mol fraction of the nth substance listed
Details: 94 kPa, Liquid, Wavelength=632.8 nm, minimum deviation method

CCCCCCCC[n+]1ccn(C)c1.F[P-](F)(F)(F)(F)F [1-octyl-3-methylimidazolium hexafluorophosphate] + CC(C)O
Details | refractive index
298.19 K, x1 = 1 | 1.4215
300.2 K, x1 = 1 | 1.421
302.19 K, x1 = 1 | 1.4204
304.2 K, x1 = 1 | 1.4199
306.22 K, x1 = 1 | 1.4193
307.22 K, x1 = 0.5 | 1.4091
307.22 K, x1 = 0.8 | 1.4159
307.28 K, x1 = 0.901 | 1.4177
307.29 K, x1 = 0.601 | 1.4119
307.3 K, x1 = 0.4 | 1.4056
307.3 K, x1 = 0.699 | 1.4141
307.41 K, x1 = 0.3 | 1.4009
308.19 K, x1 = 0.699 | 1.4138
308.21 K, x1 = 0.5 | 1.4088
308.21 K, x1 = 0.601 | 1.4116
308.23 K, x1 = 0.901 | 1.4174
308.24 K, x1 = 1 | 1.4188
308.25 K, x1 = 0.8 | 1.4156
308.29 K, x1 = 0.4 | 1.4053
308.4 K, x1 = 0.3 | 1.4006
309.22 K, x1 = 0.5 | 1.4085
309.24 K, x1 = 0.601 | 1.4113
309.24 K, x1 = 0.8 | 1.4154
309.25 K, x1 = 0.901 | 1.4171
309.27 K, x1 = 0.699 | 1.4135
309.35 K, x1 = 0.4 | 1.405
309.39 K, x1 = 0.3 | 1.4003
309.47 K, x1 = 0.2 | 1.3938
310.24 K, x1 = 0.601 | 1.411
310.25 K, x1 = 0.5 | 1.4082
310.25 K, x1 = 0.8 | 1.4151
310.25 K, x1 = 1 | 1.4183
310.31 K, x1 = 0.699 | 1.4132
310.34 K, x1 = 0.901 | 1.4168
310.36 K, x1 = 0.4 | 1.4047
310.42 K, x1 = 0.3 | 1.3999
310.45 K, x1 = 0.2 | 1.3934
310.49 K, x1 = 0.1 | 1.3838
311.23 K, x1 = 0.601 | 1.4107
311.24 K, x1 = 0.5 | 1.4079
311.25 K, x1 = 0.699 | 1.413
311.25 K, x1 = 0.901 | 1.4166
311.26 K, x1 = 0.8 | 1.4148
311.36 K, x1 = 0.4 | 1.4044
311.46 K, x1 = 0.3 | 1.3996
311.48 K, x1 = 0.2 | 1.3931
311.5 K, x1 = 0.1 | 1.3834
312.22 K, x1 = 0.8 | 1.4146
312.24 K, x1 = 0.601 | 1.4104
312.24 K, x1 = 1 | 1.4178
312.25 K, x1 = 0.5 | 1.4076
312.26 K, x1 = 0.699 | 1.4127
312.35 K, x1 = 0.901 | 1.4163
312.37 K, x1 = 0.4 | 1.4041
312.4 K, x1 = 0.3 | 1.3993
312.47 K, x1 = 0.2 | 1.3927
312.49 K, x1 = 0.1 | 1.383
313.21 K, x1 = 0.601 | 1.4101
313.25 K, x1 = 0.8 | 1.4143
313.26 K, x1 = 0.5 | 1.4073
313.26 K, x1 = 0.901 | 1.416
313.35 K, x1 = 0.4 | 1.4038
313.37 K, x1 = 0.699 | 1.4124
313.43 K, x1 = 0.3 | 1.399
313.49 K, x1 = 0.2 | 1.3924
313.52 K, x1 = 0.1 | 1.3826
314.23 K, x1 = 0.601 | 1.4098
314.23 K, x1 = 0.699 | 1.4121
314.27 K, x1 = 0.5 | 1.407
314.29 K, x1 = 0.8 | 1.414
314.29 K, x1 = 0.901 | 1.4157
314.39 K, x1 = 0.4 | 1.4035
314.46 K, x1 = 0.3 | 1.3986
314.48 K, x1 = 0.2 | 1.392
314.54 K, x1 = 0.1 | 1.3822
315.58 K, x1 = 0.1 | 1.3818
315.58 K, x1 = 0.2 | 1.3916
